US20140045809A1, “CORROLES FOR NEUROPROTECTION AND NEURORESCUE” (priority 2008, published 2014)
“Also recorded” adds a separate entry of the source.

What was measured:
[1] = In-vivo fluorescence imaging of corrole in nude mice (IVIS 200); details: 19 mg/kg i.p., 30 min after injection
Experimental: For obtaining information about in-vivo localization and distribution of the various corroles that have sulfonic acid head groups, in-vivo imaging of corroles in whole animals was performed. Of particular interest was to examine whether the leading corrole compounds unlike most porphyrins are able to cross the blood brain barrier (BBB).
The in vivo imaging experiments were performed as follows. Nude mice received i.p. injections of the fluorescent gallium(III) corrole 1C-Ga and were examined by IVIS 200 imaging system [Xenogen].

RIN-m cells = assay: Cellular uptake of fluorescent corrole, fluorescence microscopy, RIN-m cells; assay type: cell-based; details: 20 μM, half an hour at 37° C.
Source text: (§1) For testing cellular membrane penetration, as well as uptake and accumulation of corroles in the cells, we took advantage of the fluorescence property of an appropriate corrole. For this purpose we used a fluorescent corrole complex (1C-Ga) that is structurally identical to the catalytic compounds utilized in the cytoprotection/cytorescue experiments, except that the chelated metal is gallium(III) rather than iron(III) in 1C-Fe or manganese(III) in 1C-Mn. The results are shown in FIGS. 21A-D for RIN-m (insulinoma) cell line and FIGS. 22A-D for SH-SY5Y (neuroblastoma) cell line.
(§2) To visualize intracellular corrole we used fluorescence microscopy. Neuroblastoma SH-SY5Y cells and insulinoma RIN-m cells were plated on coverslips. At 24 h after plating, corrole 1C-Ga was added directly to the cell media and incubated for half an hour at 37° C. The cells were then aspirated from the media and washed with phosphate buffer to eliminate background signal due to extra cellular corrole. Fixation with formaldehyde was performed. Coverslips with mounting medium (with DAPI) were directly placed on slides and viewed by fluorescence microscopy; the results are shown in FIGS. 21, 22.

SH-SY5Y cells = assay: Cellular uptake of fluorescent corrole, fluorescence microscopy, SH-SY5Y cells; assay type: cell-based, human; details: 20 μM, half an hour at 37° C.
Source text: as §1, §2

## 2,17-bis(sulfonato)-5,10,15-tris(pentafluorophenyl)-corrolato galium(III) [1C-Ga]
[1]
  BBB penetration / accumulation in brain area: possible BBB penetration and accumulation of the corrole complex in brain area; also recorded: indicative of the crossing of the blood brain barrier (BBB)
RIN-m cells
  cellular uptake and accumulation: accumulation inside the cells
SH-SY5Y cells
  cellular uptake and accumulation: accumulation inside the cells
